Assay results taken from US20240150360A1 (THE REGENTS OF THE UNIVERSITY OF MICHIGAN, priority 2021, published 2024).
Read-outs that look alike come from different tables or passages of the source.

Legend:
CBP = target: T1, CBP (Homo sapiens, UniProt Q92793); assay: CBP degradation in 22Rv1 cells (5 h); format: cell-based; settings: 22Rv1 cells, 5 h; for Dmax: 22Rv1, 5 h, read-out: CBP Degradation (22Rv1, 5 h) DCmax
T1 construct: endogenous in cells; host or cells: 22Rv1 (ATCC CRL-2505) human prostate cancer cells
Description: Biological Assays. […] Cells with 3-8 passages after purchase were used in experiments.

22Rv1 cells = assay: Cell growth inhibition assay (CellTiter-Glo) in 22Rv1; format: cell-based, human; settings: 22Rv1 cells, 96 h incubation, read-out: Cell Growth Inhibition (IC50) 22Rv1
Method: Biological Assays. CBP/p300 degradation activity and cell growth inhibition were evaluated in the human prostate cancer cell line 22Rv1 (ATCC© CRL-2505™) purchased from the American Type Culture Collection (ATCC), Manassas, VA, and maintained and cultured in Dulbecco's Modified Eagle's medium (DMEM) containing 10% fetal bovine serum, 1 unit/ml of penicillin and 1 μg/ml of streptomycin. Cells with 3-8 passages after purchase were used in experiments.
Cell Growth Inhibition Assay Protocol. 22RV1 cells were seeded at a concentration of 4000 cells/well in 100 μl culture medium and 2 μl of test compound (final concentration start from 10 μM and 3 times dilution) into 96 well microplates (Corning 3903). The cell cultures were incubated for 96 h at +37° C. and 5% CO2. The plate and its contents were equilibrated to room temperature for approximately 30 minutes. 100 μl of CellTiter-Glo® 2.0 Reagent equal to the volume of cell culture medium present was added in each well. The contents were mixed for 2 minutes on an orbital shaker. The plate was allowed to incubate at room temperature for 10 minutes. The luminescence was recorded. The data was analyzed by Prism GraphPad 8.

HL60 = assay: Cell growth inhibition in HL60; format: cell-based; settings: read-out: Cell Growth Inhibition (IC50) HL60
[1] = Homo sapiens, HL-60, HL60 cells

T1 sequence (Q92793 whole entry): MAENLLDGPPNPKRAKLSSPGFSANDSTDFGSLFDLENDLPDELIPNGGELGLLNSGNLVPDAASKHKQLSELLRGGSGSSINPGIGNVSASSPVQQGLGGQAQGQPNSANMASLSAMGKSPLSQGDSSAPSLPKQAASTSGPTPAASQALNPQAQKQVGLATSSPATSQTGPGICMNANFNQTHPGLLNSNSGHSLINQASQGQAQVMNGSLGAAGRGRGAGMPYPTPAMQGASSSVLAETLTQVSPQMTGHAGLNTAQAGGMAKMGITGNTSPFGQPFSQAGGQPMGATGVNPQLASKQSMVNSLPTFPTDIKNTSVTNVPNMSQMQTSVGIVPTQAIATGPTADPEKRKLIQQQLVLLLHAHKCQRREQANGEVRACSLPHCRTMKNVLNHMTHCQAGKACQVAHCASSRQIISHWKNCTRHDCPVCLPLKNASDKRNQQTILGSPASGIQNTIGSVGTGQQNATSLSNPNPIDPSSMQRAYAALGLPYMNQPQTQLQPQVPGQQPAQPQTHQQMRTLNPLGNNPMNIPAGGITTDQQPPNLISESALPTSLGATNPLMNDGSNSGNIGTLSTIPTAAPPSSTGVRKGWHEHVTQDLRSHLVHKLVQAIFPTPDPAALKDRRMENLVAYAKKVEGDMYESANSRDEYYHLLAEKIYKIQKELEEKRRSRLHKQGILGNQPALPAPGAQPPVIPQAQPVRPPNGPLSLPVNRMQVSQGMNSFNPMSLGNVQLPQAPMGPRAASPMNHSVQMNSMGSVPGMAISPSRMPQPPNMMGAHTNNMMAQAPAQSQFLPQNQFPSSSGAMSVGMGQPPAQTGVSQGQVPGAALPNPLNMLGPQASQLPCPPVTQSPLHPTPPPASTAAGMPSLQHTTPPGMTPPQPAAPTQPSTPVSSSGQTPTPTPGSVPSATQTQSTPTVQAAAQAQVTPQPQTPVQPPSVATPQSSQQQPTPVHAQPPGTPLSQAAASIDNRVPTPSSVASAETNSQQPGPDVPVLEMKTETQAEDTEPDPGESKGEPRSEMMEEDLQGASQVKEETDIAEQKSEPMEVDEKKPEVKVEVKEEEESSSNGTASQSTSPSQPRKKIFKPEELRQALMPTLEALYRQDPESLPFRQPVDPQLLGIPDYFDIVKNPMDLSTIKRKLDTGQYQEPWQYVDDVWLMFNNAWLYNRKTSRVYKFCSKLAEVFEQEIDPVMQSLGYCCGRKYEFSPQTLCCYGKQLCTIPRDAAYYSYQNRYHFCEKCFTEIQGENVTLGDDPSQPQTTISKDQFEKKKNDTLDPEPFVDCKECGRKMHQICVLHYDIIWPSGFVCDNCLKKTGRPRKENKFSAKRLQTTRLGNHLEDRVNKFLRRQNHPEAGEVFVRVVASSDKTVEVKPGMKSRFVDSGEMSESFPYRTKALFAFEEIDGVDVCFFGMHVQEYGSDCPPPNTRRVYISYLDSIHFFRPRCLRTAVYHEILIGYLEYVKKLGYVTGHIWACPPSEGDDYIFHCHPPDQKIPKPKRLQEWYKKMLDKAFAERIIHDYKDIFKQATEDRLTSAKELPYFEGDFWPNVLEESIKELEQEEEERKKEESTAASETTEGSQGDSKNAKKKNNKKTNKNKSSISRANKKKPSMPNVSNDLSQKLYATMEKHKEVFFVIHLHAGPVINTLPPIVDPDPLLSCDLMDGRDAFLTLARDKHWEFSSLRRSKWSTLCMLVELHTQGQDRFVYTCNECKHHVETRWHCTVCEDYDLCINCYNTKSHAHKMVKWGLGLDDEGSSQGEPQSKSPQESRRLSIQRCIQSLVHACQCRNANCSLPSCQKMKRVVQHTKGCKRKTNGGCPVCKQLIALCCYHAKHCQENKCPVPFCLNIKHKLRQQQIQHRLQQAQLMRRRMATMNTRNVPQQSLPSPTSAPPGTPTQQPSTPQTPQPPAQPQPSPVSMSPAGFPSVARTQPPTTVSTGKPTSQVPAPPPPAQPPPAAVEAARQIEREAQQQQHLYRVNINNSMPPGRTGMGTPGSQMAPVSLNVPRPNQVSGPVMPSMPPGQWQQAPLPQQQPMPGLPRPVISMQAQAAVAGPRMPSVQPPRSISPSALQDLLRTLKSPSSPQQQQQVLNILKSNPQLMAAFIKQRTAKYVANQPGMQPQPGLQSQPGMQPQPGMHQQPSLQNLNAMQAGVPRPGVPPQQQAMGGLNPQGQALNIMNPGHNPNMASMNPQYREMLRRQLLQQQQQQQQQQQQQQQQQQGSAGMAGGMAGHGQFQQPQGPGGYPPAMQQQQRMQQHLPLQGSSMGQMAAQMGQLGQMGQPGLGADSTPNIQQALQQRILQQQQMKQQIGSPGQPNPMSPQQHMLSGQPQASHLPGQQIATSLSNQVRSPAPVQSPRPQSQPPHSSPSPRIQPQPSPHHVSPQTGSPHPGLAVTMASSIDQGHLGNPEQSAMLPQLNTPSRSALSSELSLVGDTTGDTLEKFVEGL

SMILES | Dmax (CBP) [%] | DC50 (CBP) [nM] | IC50 (22Rv1 cells; Homo sapiens, 22Rv1, 96 h) [nM] | IC50 (HL60; [1]) [nM] | IC50 (22Rv1 cells) [nM] | CBP Degradation (22Rv1, 5 h) DCmax (CBP) | IC50 (HL60; HL60 cells) [nM]
CC(=O)N1CCc2c(c(N3CCCc4cc(-c5cnn(C6CCN(C(=O)CN7CCc8cc9c(cc8C7)C(=O)N(C7CCC(=O)NC7=O)C9=O)CC6)c5)c(C(F)F)cc43)nn2C2CCOCC2)C1 (stereo not shown) [CP-071, 6-(2-(4-(4-(1-(5-acetyl-1-(tetrahydro-2H-pyran-4-yl)-4,5,6,7-tetrahydro-1H-pyrazolo[4,3-c]pyridin-3-yl)-7-(difluoromethyl)-1,2,3,4-tetrahydroquinolin-6-yl)-1H-pyrazol-1-yl)piperidin-1-yl)-2-oxoethyl)-2-(2,6-dioxopiperidin-3-yl)-5,6,7,8-tetrahydro-1H-pyrrolo[3,4-g]isoquinoline-1,3(2H)-dione] | > 90 | < 10 | < 1000 | < 100 | – | – | –
CC(=O)N1CCc2c(c(N3CCCc4cc(-c5cnn(CCCCN6CCc7cc8c(cc7C6)C(=O)N(C6CCC(=O)NC6=O)C8=O)c5)c(C(F)F)cc43)nn2C2CCOCC2)C1 (stereo not shown) [CP-070, 6-(4-(4-(1-(5-acetyl-1-(tetrahydro-2H-pyran-4-yl)-4,5,6,7-tetrahydro-1H-pyrazolo[4,3-c]pyridin-3-yl)-7-(difluoromethyl)-1,2,3,4-tetrahydroquinolin-6-yl)-1H-pyrazol-1-yl)butyl)-2-(2,6-dioxopiperidin-3-yl)-5,6,7,8-tetrahydro-1H-pyrrolo[3,4-g]isoquinoline-1,3(2H)-dione] | > 70 | < 10 | < 1000 | < 100 | – | – | –
CC(=O)N1CCc2c(c(N3CCCc4cc(-c5cnn(C)c5)c(C(F)F)cc43)nn2C2CCC(C(=O)N3Cc4cc5c(cc4C3)C(=O)N(C3CCC(=O)NC3=O)C5=O)CC2)C1 (stereo not shown) [CP-033, 6-(4-(5-acetyl-3-(7-(difluoromethyl)-6-(1-methyl-1H-pyrazol-4-yl)-3,4-dihydroquinolin-1(2H)-yl)-4,5,6,7-tetrahydro-1H-pyrazolo[4,3-c]pyridin-1-yl)cyclohexane-1-carbonyl)-2-(2,6-dioxopiperidin-3-yl)-6,7-dihydropyrrolo[3,4-f]isoindole-1,3(2H,5H)-dione] | > 90 | < 10 | – | < 100 | < 100 | – | –
CCC(=O)N1CCc2c(c(N3CCCc4cc(-c5cnn(C)c5)c(C(F)F)cc43)nn2C2CCN(C(=O)CN3Cc4cc5c(cc4C3)C(=O)N(C3CCC(=O)NC3=O)C5=O)CC2)C1 (stereo not shown) [CP-055, 6-(2-(4-(3-(7-(difluoromethyl)-6-(1-methyl-1H-pyrazol-4-yl)-3,4-dihydroquinolin-1(2H)-yl)-5-propionyl-4,5,6,7-tetrahydro-1H-pyrazolo[4,3-c]pyridin-1-yl)piperidin-1-yl)-2-oxoethyl)-2-(2,6-dioxopiperidin-3-yl)-6,7-dihydropyrrolo[3,4-f]isoindole-1,3(2H,5H)-dione] | > 70 | < 10 | < 1000 | < 1000 | – | – | –
CC(=O)N1CCc2c(c(N3CCCc4cc(-c5cnn(C)c5)c(C(F)F)cc43)nn2C2CCN(CC(=O)N3Cc4cc5c(cc4C3)C(=O)N(C3CCC(=O)NC3=O)C5=O)CC2)C1 (stereo not shown) [CP-006, 6-(2-(4-(5-acetyl-3-(7-(difluoromethyl)-6-(1-methyl-1H-pyrazol-4-yl)-3,4-dihydroquinolin-1(2H)-yl)-4,5,6,7-tetrahydro-1H-pyrazolo[4,3-c]pyridin-1-yl)piperidin-1-yl)acetyl)-2-(2,6-dioxopiperidin-3-yl)-6,7-dihydropyrrolo[3,4-f]isoindole-1,3(2H,5H)-dione] | > 70 | < 10 | < 10000 | < 1000 | – | – | –
CC(=O)N1CCc2c(c(N3CCCc4cc(-c5cnn(CCCCN6Cc7cc8c(cc7C6)C(=O)N(C6CCC(=O)NC6=O)C8=O)c5)c(C(F)F)cc43)nn2C2CCOCC2)C1 (stereo not shown) [CP-068, 6-(4-(4-(1-(5-acetyl-1-(tetrahydro-2H-pyran-4-yl)-4,5,6,7-tetrahydro-1H-pyrazolo[4,3-c]pyridin-3-yl)-7-(difluoromethyl)-1,2,3,4-tetrahydroquinolin-6-yl)-1H-pyrazol-1-yl)butyl)-2-(2,6-dioxopiperidin-3-yl)-6,7-dihydropyrrolo[3,4-f]isoindole-1,3(2H,5H)-dione] | > 90 | < 10 | < 100 | < 100 | – | – | –
CC(=O)N1CCc2c(c(N3CCCc4cc(-c5cnn(C)c5)c(C(F)F)cc43)nn2C2CCN(C(=O)CCCN3CCc4cc5c(cc4C3)C(=O)N(C3CCC(=O)NC3=O)C5=O)CC2)C1 (stereo not shown) [CP-004, 6-(4-(4-(5-acetyl-3-(7-(difluoromethyl)-6-(1-methyl-1H-pyrazol-4-yl)-3,4-dihydroquinolin-1(2H)-yl)-4,5,6,7-tetrahydro-1H-pyrazolo[4,3-c]pyridin-1-yl)piperidin-1-yl)-4-oxobutyl)-2-(2,6-dioxopiperidin-3-yl)-5,6,7,8-tetrahydro-1H-pyrrolo[3,4-g]isoquinoline-1,3(2H)-dione] | > 70 | < 10 | < 1000 | < 1000 | – | – | –
CC(=O)N1CCc2c(c(N3CCCc4cc(-c5cnn(C)c5)c(C(F)F)cc43)nn2C2CCC(C(=O)N3CCc4cc5c(cc4C3)C(=O)N(C3CCC(=O)NC3=O)C5=O)CC2)C1 (stereo not shown) [CP-035, 6-(4-(5-acetyl-3-(7-(difluoromethyl)-6-(1-methyl-1H-pyrazol-4-yl)-3,4-dihydroquinolin-1(2H)-yl)-4,5,6,7-tetrahydro-1H-pyrazolo[4,3-c]pyridin-1-yl)cyclohexane-1-carbonyl)-2-(2,6-dioxopiperidin-3-yl)-5,6,7,8-tetrahydro-1H-pyrrolo[3,4-g]isoquinoline-1,3(2H)-dione] | – | < 100 | – | – | < 10000 | + (>50% =) | < 1000
CC(=O)N1CCc2c(c(N3CCCc4ccc(C(F)F)cc43)nn2C2CCN(C(=O)CN3Cc4cc5c(cc4C3)C(=O)N(C3CCC(=O)NC3=O)C5=O)CC2)C1 (stereo not shown) [CP-010, 6-(2-(4-(5-acetyl-3-(7-(difluoromethyl)-3,4-dihydroquinolin-1(2H)-yl)-4,5,6,7-tetrahydro-1H-pyrazolo[4,3-c]pyridin-1-yl)piperidin-1-yl)-2-oxoethyl)-2-(2,6-dioxopiperidin-3-yl)-6,7-dihydropyrrolo[3,4-f]isoindole-1,3(2H,5H)-dione] | > 70 | < 100 | > 10000 | < 1000 | – | – | –
CC(=O)N1CCc2c(c(N3CCCc4cc(-c5cnn(C)c5)c(C(F)F)cc43)nn2C2CCC(CC(=O)N3Cc4cc5c(cc4C3)C(=O)N(C3CCC(=O)NC3=O)C5=O)CC2)C1 (stereo not shown) [CP-027, 6-(2-(4-(5-acetyl-3-(7-(difluoromethyl)-6-(1-methyl-1H-pyrazol-4-yl)-3,4-dihydroquinolin-1(2H)-yl)-4,5,6,7-tetrahydro-1H-pyrazolo[4,3-c]pyridin-1-yl)cyclohexyl)acetyl)-2-(2,6-dioxopiperidin-3-yl)-6,7-dihydropyrrolo[3,4-f]isoindole-1,3(2H,5H)-dione] | < 50 | > 1000 | < 10000 | < 1000 | – | – | –
CC(=O)N1CCc2c(c(N3CCCc4cc(-c5cnn(CCCCCN6Cc7cc8c(cc7C6)C(=O)N(C6CCC(=O)NC6=O)C8=O)c5)c(C(F)F)cc43)nn2C2CCOCC2)C1 (stereo not shown) [CP-067, 6-(5-(4-(1-(5-acetyl-1-(tetrahydro-2H-pyran-4-yl)-4,5,6,7-tetrahydro-1H-pyrazolo[4,3-c]pyridin-3-yl)-7-(difluoromethyl)-1,2,3,4-tetrahydroquinolin-6-yl)-1H-pyrazol-1-yl)pentyl)-2-(2,6-dioxopiperidin-3-yl)-6,7-dihydropyrrolo[3,4-f]isoindole-1,3(2H,5H)-dione] | > 90 | < 10 | < 100 | < 100 | – | – | –
CC(=O)N1CCc2c(c(N3CCCc4cc(-c5cnn(C)c5)c(C(F)F)cc43)nn2C[C@H]2CC[C@@H](C(=O)N3CCc4cc5c(cc4C3)C(=O)N(C3CCC(=O)NC3=O)C5=O)CC2)C1 (stereo partly drawn) [CP-032, cis-6-(4-((5-acetyl-3-(7-(difluoromethyl)-6-(1-methyl-1H-pyrazol-4-yl)-3,4-dihydroquinolin-1(2H)-yl)-4,5,6,- tetrahydro-1H-pyrazolo[4,3-c]pyridin-1-yl)methyl)cyclohexane-1-carbonyl)-2-(2,6-dioxopiperidin-3-yl)-5,6,7,8-tetrahydro-1H-pyrrolo[3,4-g]isoquinoline-1,3(2H)-dione] | > 50 | < 100 | < 10000 | < 1000 | – | – | –
CC(=O)N1CCc2c(c(N3CCCc4cc(-c5cnn(CCCN6CCc7cc8c(cc7C6)C(=O)N(C6CCC(=O)NC6=O)C8=O)c5)c(C(F)F)cc43)nn2C2CCOCC2)C1 (stereo not shown) [CP-074, 6-(3-(4-(1-(5-acetyl-1-(tetrahydro-2H-pyran-4-yl)-4,5,6,7-tetrahydro-1H-pyrazolo[4,3-c]pyridin-3-yl)-7-(difluoromethyl)-1,2,3,4-tetrahydroquinolin-6-y)-1H-pyrazol-1-yl)propyl)-2-(2,6-dioxopiperidin-3-yl)-5,6,7,8-tetrahydro-1H-pyrrolo[3,4-g]isoquinoline-1,3(2H)-dione] | < 50 | > 1000 | < 10000 | < 100 | – | – | –
